# Measurements: patent publication US11667606B2, “Thyromimetics” (Autobahn Therapeutics, Inc., priority 2019, dated 2023)
# Experiments:
# TRα = molecular target: T1, TRα (Homo sapiens, UniProt P10827); assay: Thyroid-hormone reporter-gene assay, TRα (Gal4 DBD hybrid, luciferase, HEK293); format: cell-based; conditions: reporter cells derived from HEK293, 24 hr incubation, luciferase readout
# T1 construct: expressed in transfected cells; host or cells: HEK293
# T1 sequence (P10827 128-410 isoform P10827-2 limits assumed): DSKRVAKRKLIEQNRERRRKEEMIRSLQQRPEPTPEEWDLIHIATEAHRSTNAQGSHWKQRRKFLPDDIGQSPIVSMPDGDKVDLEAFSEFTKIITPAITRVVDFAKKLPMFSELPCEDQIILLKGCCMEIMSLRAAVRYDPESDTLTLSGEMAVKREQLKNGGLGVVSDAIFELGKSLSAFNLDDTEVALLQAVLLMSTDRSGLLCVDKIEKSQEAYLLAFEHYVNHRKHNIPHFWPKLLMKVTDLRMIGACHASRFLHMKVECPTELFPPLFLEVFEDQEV
# Experimental: Compounds were tested for thyroid-hormone receptor activity using TR reporter-gene assays. Reporter cells used in the assays express a TR-receptor hybrid (either TRα or TRβ) in which the native N-terminal DNA binding domain (DBD) has been replaced with that of the yeast Gal4 DBD. The reporter gene, firefly luciferase, is functionally linked to the Gal4 upstream activation sequence (UAS). Both cell lines were derived from human embryonic kidney (HEK293).
# A suspension of reporter cells was prepared in cell recovery medium containing 10% charcoal-stripped FBS, and dispensed into assay plates. The plates were pre-incubated for 6 hours in a cell culture incubator (37° C./5% CO2/85% humidity).
# These intermediate stocks were subsequently diluted directly into compound screening medium containing 10% charcoal-stripped FBS to generate “2×-concentration” treatment media (containing 0.2, 0.4 or 0.8% DMSO).
# At the end of the pre-incubation period, culture media were discarded from the assay plates, and all wells received 100 μl of compound screening medium. 100 μl of each of the previously prepared “2×-concentration” treatment media were dispensed into duplicate assay wells, thereby achieving the desired final treatment concentrations. The final concentration of DMSO in all assay wells was 0.1, 0.2 or 0.4%. Assay plates were incubated for 24 hr in a cell culture incubator (37° C./5% CO2/85% humidity).
# At the 24 h assay endpoint, treatment media were discarded and […] of luciferase detection reagent was added. Relative luminometer units (RLUs) were quantified from each assay well.
# TRβ = molecular target: T2, TRβ (Homo sapiens, UniProt P10828); assay: Thyroid-hormone reporter-gene assay, TRβ (Gal4 DBD hybrid, luciferase, HEK293); format: cell-based; conditions: for T3-SI, selectivity index (SI) calculated as EC50 (TRα)/EC50 (TRβ): TRβ over TRα selectivity from reporter-gene EC50 values; for EC50: reporter cells derived from HEK293, 24 hr incubation, luciferase readout
# T2 construct: expressed in transfected cells; host or cells: HEK293
# T2 sequence (P10828 217-461 limits assumed): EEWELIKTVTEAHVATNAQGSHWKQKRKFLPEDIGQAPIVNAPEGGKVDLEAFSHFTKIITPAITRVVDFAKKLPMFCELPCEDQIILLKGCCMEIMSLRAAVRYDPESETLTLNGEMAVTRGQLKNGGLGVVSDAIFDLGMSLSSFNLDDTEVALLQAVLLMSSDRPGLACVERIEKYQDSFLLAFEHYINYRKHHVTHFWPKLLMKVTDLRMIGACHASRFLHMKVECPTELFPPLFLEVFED
compound,measurement,setting,value
"O=C(O)COc1cc(Cl)c(Cc2ccc(O)c(C3CCCc4cc(F)ccc43)c2)c(Cl)c1 (stereo not drawn) [Compound 111, 2-(3,5-dichloro-4-(3-(6-fluoro-1,2,3,4-tetrahydronaphthalen-1-yl)-4-hydroxybenzyl)phenoxy)acetic Acid]",EC50,TRα,100 to 1000 nM
same,"T3-SI, selectivity index (SI) calculated as EC50 (TRα)/EC50 (TRβ)",TRβ,++ (3X < T3-SI ≤ 30X)
same,EC50,TRβ,100 to 1000 nM
"O=C(O)COc1cc(Cl)c(Cc2ccc(O)c(C3CCc4cc(F)ccc43)c2)c(Cl)c1 (stereo not drawn) [Compound 113, 2-(3,5-dichloro-4-(3-(5-fluoro-2,3-dihydro-1H-inden-1-yl)-4-hydroxybenzyl)phenoxy)acetic Acid]",EC50,TRα,> 1000 nM
same,"T3-SI, selectivity index (SI) calculated as EC50 (TRα)/EC50 (TRβ)",TRβ,++ (3X < T3-SI ≤ 30X)
same,EC50,TRβ,> 1000 nM
"Cc1cc(OCC(=O)O)cc(Cl)c1Cc1ccc(O)c(Cc2ccc(F)cc2)c1 [Compound 115, 2-(3-chloro-4-(3-(4-fluorobenzyl)-4-hydroxybenzyl)-5-methylphenoxy) acetic Acid]",EC50,TRα,100 to 1000 nM
same,"T3-SI, selectivity index (SI) calculated as EC50 (TRα)/EC50 (TRβ)",TRβ,++ (3X < T3-SI ≤ 30X)
same,EC50,TRβ,10 to 100 nM
"O=C(O)COc1cc(Cl)c(Cc2ccc(O)c(Cc3ccoc3)c2)c(Cl)c1 [Compound 119, 2-(3,5-dichloro-4-(3-(furan-3-ylmethyl)-4-hydroxybenzyl)phenoxy)acetic Acid]",EC50,TRα,> 1000 nM
same,"T3-SI, selectivity index (SI) calculated as EC50 (TRα)/EC50 (TRβ)",TRβ,++ (3X < T3-SI ≤ 30X)
same,EC50,TRβ,100 to 1000 nM
"O=C(O)COc1cc(Cl)c(Cc2ccc(O)c(Cc3ccsc3)c2)c(Cl)c1 [Compound 121, 2-(3,5-dichloro-4-(4-hydroxy-3-(thiophen-3-ylmethyl)benzyl)phenoxy) acetic Acid]",EC50,TRα,> 1000 nM
same,"T3-SI, selectivity index (SI) calculated as EC50 (TRα)/EC50 (TRβ)",TRβ,++ (3X < T3-SI ≤ 30X)
same,EC50,TRβ,100 to 1000 nM
"O=C(O)COc1cc(Cl)c(Cc2ccc(O)c(Cc3cccs3)c2)c(Cl)c1 [Compound 123, 2-(3,5-dichloro-4-(4-hydroxy-3-(thiophen-2-ylmethyl)benzyl)phenoxy) acetic Acid]",EC50,TRα,> 1000 nM
same,"T3-SI, selectivity index (SI) calculated as EC50 (TRα)/EC50 (TRβ)",TRβ,++ (3X < T3-SI ≤ 30X)
same,EC50,TRβ,100 to 1000 nM
O=C(O)COc1cc(Cl)c(Cc2ccc(O)c(C(c3ccc(F)cc3)C(F)(F)F)c2)c(Cl)c1 (stereo not drawn) [Compound 125],EC50,TRα,100 to 1000 nM
same,"T3-SI, selectivity index (SI) calculated as EC50 (TRα)/EC50 (TRβ)",TRβ,++ (3X < T3-SI ≤ 30X)
same,EC50,TRβ,10 to 100 nM
"O=C(O)COc1cc(Cl)c(Cc2ccc(O)c(C(CC(F)(F)F)c3ccc(F)cc3)c2)c(Cl)c1 (stereo not drawn) [Compound 127, 2-(3,5-dichloro-4-(4-hydroxy-3-(3,3,3-trifluoro-1-(4-fluorophenyl)propyl)benzyl)phenoxy)acetic Acid]",EC50,TRα,100 to 1000 nM
same,"T3-SI, selectivity index (SI) calculated as EC50 (TRα)/EC50 (TRβ)",TRβ,++ (3X < T3-SI ≤ 30X)
same,EC50,TRβ,10 to 100 nM
"COCC(c1ccc(F)cc1)c1cc(Cc2c(Cl)cc(OCC(=O)O)cc2Cl)ccc1O (stereo not drawn) [Compound 129, 2-(3,5-dichloro-4-(3-(1-(4-fluorophenyl)-2-methoxyethyl)-4-hydroxybenzyl)phenoxy)acetic Acid]",EC50,TRα,> 1000 nM
same,"T3-SI, selectivity index (SI) calculated as EC50 (TRα)/EC50 (TRβ)",TRβ,+++ (T3-SI > 30X)
same,EC50,TRβ,100 to 1000 nM
"Cc1cc(OCC(=O)O)cc(Br)c1Cc1ccc(O)c(C(C)c2ccc(F)cc2)c1 (stereo not drawn) [Compound 131, 2-(3-bromo-4-(3-(1-(4-fluorophenyl)ethyl)-4-hydroxybenzyl)-5-methylphenoxy)acetic Acid]",EC50,TRα,10 to 100 nM
same,"T3-SI, selectivity index (SI) calculated as EC50 (TRα)/EC50 (TRβ)",TRβ,++ (3X < T3-SI ≤ 30X)
same,EC50,TRβ,< 10 nM
"Cc1cc(OCC(=O)O)cc(C)c1Cc1ccc(O)c(Cc2ccc(F)cc2)c1 [Compound 133, 2-(4-(3-(4-fluorobenzyl)-4-hydroxybenzyl)-3,5-dimethylphenoxy)acetic Acid]",EC50,TRα,100 to 1000 nM
same,"T3-SI, selectivity index (SI) calculated as EC50 (TRα)/EC50 (TRβ)",TRβ,++ (3X < T3-SI ≤ 30X)
same,EC50,TRβ,10 to 100 nM
"O=C(O)COc1cc(Cl)c(Cc2ccc(O)c(CCc3ccc(F)cc3)c2)c(Cl)c1 [Compound 135, 2-(3,5-dichloro-4-(3-(4-fluorophenethyl)-4-hydroxybenzyl)phenoxy)acetic Acid]",EC50,TRα,> 1000 nM
same,"T3-SI, selectivity index (SI) calculated as EC50 (TRα)/EC50 (TRβ)",TRβ,++ (3X < T3-SI ≤ 30X)
same,EC50,TRβ,> 1000 nM
"O=C(COc1cc(Cl)c(Cc2ccc(O)c(-c3cccc(OC(F)F)c3)c2)c(Cl)c1)N1CC1 [Compound 138, 1-(aziridin-1-yl)-2-(3,5-dichloro-4-((3′-(difluoromethoxy)-6-hydroxy-[1,1′-biphenyl]-3-yl)methyl)phenoxy)ethan-1-one]",EC50,TRα,> 1000 nM
same,"T3-SI, selectivity index (SI) calculated as EC50 (TRα)/EC50 (TRβ)",TRβ,++ (3X < T3-SI ≤ 30X)
same,EC50,TRβ,100 to 1000 nM
